Residues, ends and D or L forms follow the SMILES beside them.
What was measured:
SH2D1B SH2 domain = biological target: T1, SH2D1B SH2 domain (Homo sapiens, UniProt O14796); assay: FP saturation binding assay; conditions: FP saturation assay
T1 sequence (O14796 5-101 limits assumed): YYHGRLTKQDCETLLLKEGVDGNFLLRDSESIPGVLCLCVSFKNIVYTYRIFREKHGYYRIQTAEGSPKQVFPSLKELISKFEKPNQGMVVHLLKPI

SH2D1A SH2 domain = biological target: T2, SH2D1A SH2 domain (Homo sapiens, UniProt O60880); assay: FP saturation binding assay; conditions: for KD range of recruitment of SH2D1A (SHD1A [sic]): FP saturation assay
T2 sequence (O60880 6-104 limits assumed): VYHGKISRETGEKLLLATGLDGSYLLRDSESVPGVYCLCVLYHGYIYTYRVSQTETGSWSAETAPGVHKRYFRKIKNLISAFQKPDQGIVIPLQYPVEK

SH2D2A SH2 domain = SH2D2A SH2 domain (Homo sapiens, UniProt Q9NP31); assay: FP saturation binding assay
Chain of SH2D2A SH2 domain (Q9NP31 95-186 limits assumed): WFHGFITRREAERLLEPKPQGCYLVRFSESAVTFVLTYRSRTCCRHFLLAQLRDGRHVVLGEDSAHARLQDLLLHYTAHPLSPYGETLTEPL

[1] = biological target: PIK3R2-NC tandem SH2 domains (Homo sapiens, UniProt O00459); assay: FP saturation binding assay
Chain of PIK3R2-NC tandem SH2 domains (O00459 330-716 limits assumed): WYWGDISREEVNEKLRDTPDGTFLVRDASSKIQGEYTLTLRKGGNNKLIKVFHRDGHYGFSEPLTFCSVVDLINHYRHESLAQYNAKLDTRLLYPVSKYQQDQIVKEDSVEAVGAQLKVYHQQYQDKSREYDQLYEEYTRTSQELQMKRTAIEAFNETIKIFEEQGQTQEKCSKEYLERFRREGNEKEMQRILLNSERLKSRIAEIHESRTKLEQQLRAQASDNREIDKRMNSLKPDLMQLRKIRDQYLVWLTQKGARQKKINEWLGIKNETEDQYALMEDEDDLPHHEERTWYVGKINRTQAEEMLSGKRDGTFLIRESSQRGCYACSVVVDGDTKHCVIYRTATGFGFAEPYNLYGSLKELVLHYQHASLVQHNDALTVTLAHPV

[2] = biological target: T3, PLCG1-NC tandem SH2 domains (Homo sapiens, UniProt P19174); assay: FP saturation binding assay; conditions: Protein PLCG1-NC; FP saturation binding, high-confidence ErbB interactions; mean over replicate hits
T3 construct: the tandem protein was included in our analysis with all internal amino acids linking the domains; 6X His; thioredoxin; made in house; host or cells: E. coli BL21(DE3)pLysS
T3 sequence (P19174 550-756 limits assumed): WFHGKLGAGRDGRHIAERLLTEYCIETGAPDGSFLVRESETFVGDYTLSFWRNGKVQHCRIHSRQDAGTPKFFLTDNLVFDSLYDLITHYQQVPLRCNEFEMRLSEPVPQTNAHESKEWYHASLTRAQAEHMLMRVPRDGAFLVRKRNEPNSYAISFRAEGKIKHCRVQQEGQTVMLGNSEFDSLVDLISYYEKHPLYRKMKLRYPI
Experimental: (See Figure 1A) Rhodamine-labeled peptides were dissolved in assay buffer (20 mM HEPES, 100 mM KCl, 0.1% Tween-20, 5 mM DTT, pH 7.8), diluted to a concentration of 20 nM, and plated into black 384-well plates (Corning, Corning, NY) at 5 µL/well using a Perkin Elmer EP3 pipetting workstation (V&P Scientific, Inc., San Diego, CA). SH2, PTB, and thioredoxin control proteins were plated into the first column of 2 mL 96-well plates (Corning) at a concentration of 20 µM and serially diluted 1∶2 into freezing buffer (300 mM NaCl, 50 mM Na2PO4, pH 8, 20% glycerol v/v) eleven times using a Tecan Freedom EVO 100 workstation (Tecan, Männedorf, Switzerland). For the interaction assay, 5 µL of each of the twelve protein concentrations was added to the peptide-containing 384-well plates via the EP3 resulting in a protein dilution range of 0.002–10 µM and a final volume of 10 µL; peptide concentration was fixed at 10 nM. […] Experimental values were output as millipolarization (mP) units and imported into MATLAB (The MathWorks, Inc., Natick, MA) in which equation (1) was used to determine dissociation constants (KDs) for each protein/peptide pairing by least squares nonlinear regression. [drawing 1] (1)
(§1) FP was described by the following equation: P=Iparallel-IperpendicularIparallel+Iperpendicular, where “P” denotes polarization, and “I” denotes the fluorescent intensity relative to the plane of incident light. Experimental values were output as millipolarization (mP) units and imported into MATLAB where the following equation was used to determine dissociation constants (KDs) for each protein/peptide pairing by least squares nonlinear regression:
(§2) Pobs=Pmax∙ProteinKD+Protein [picture] (1)
Peptides were initially tested for systematic plate effects across protein dilutions and nonspecific binding to thioredoxin by linear regression analysis and any effects were regressed out. The median baseline control polarization value for each plate was then subtracted from each data point to make each binding curve intersect at zero. Plates with excessive variation in baseline control polarizations on both a global and run-specific manner (Dixon’s Q test, p < 0.05) were excluded from further analysis. Outliers in each binding curve were identified and removed using an iterative procedure as follows. The residuals for each fit were used to calculate a global standard deviation of the residuals (GSDR) for each concentration of SH2 domain over all interactions, and individual data points with residuals < or > two GSDR from the global mean residual were flagged as outliers. The outlier with the largest residual from each interaction was removed and nonlinear regression was again performed. This procedure was repeated if additional outliers were identified for an interaction, discarding the interaction if the number of outliers exceeded three. […] In order to further control our false positive rate against hidden confounding variables producing binding artifacts, we sought to determine whether there was a significant relationship between the strength of an interaction and its technical replication rate at our stringent significance and filtering thresholds. We performed logistic regression on the proportion of successful replicates for each interaction query against KD for all interactions (Figure S15A). […] “High-confidence” FP interactions are defined as those having 1 - P(Observed Replication Rate | Expectation) > 0.5 and that have replicated at least twice across independent FP runs. […] The compiled FP data were organized into heatmaps generated by MATLAB and relative binding strength (µM). Peptides without at least one positive hit were classified as “no interaction” if there was no homologous sequence (i.e. identical at the +1 to +4 positions relative to the phosphotyrosine) that produced a positive interaction within the ErbB receptor family.

[3] = biological target: T4, PIK3R3-NC tandem SH2 domains (Homo sapiens, UniProt Q92569); assay: FP saturation binding assay; conditions: Protein PIK3R3-NC; FP saturation binding, high-confidence ErbB interactions; mean over replicate hits
T4 construct: the tandem protein was included in our analysis with all internal amino acids linking the domains; 6X His; thioredoxin; made in house; host or cells: E. coli BL21(DE3)pLysS
Experimental: (See Figure 1A) Rhodamine-labeled peptides were dissolved in assay buffer (20 mM HEPES, 100 mM KCl, 0.1% Tween-20, 5 mM DTT, pH 7.8), diluted to a concentration of 20 nM, and plated into black 384-well plates (Corning, Corning, NY) at 5 µL/well using a Perkin Elmer EP3 pipetting workstation (V&P Scientific, Inc., San Diego, CA). SH2, PTB, and thioredoxin control proteins were plated into the first column of 2 mL 96-well plates (Corning) at a concentration of 20 µM and serially diluted 1∶2 into freezing buffer (300 mM NaCl, 50 mM Na2PO4, pH 8, 20% glycerol v/v) eleven times using a Tecan Freedom EVO 100 workstation (Tecan, Männedorf, Switzerland). For the interaction assay, 5 µL of each of the twelve protein concentrations was added to the peptide-containing 384-well plates via the EP3 resulting in a protein dilution range of 0.002–10 µM and a final volume of 10 µL; peptide concentration was fixed at 10 nM. Peptide/protein samples were incubated for 20 minutes at room temperature in the dark and fluorescence polarization (FP) was measured in an Analyst GT multimode reader (Molecular Devices, Sunnyvale, CA) with excitation and emission wavelengths of 530 nm and 555 nm, respectively. Experimental values were output as millipolarization (mP) units and imported into MATLAB (The MathWorks, Inc., Natick, MA) in which equation (1) was used to determine dissociation constants (KDs) for each protein/peptide pairing by least squares nonlinear regression. [drawing 1] (1)
as §1, §2
Peptides were initially tested for systematic plate effects across protein dilutions and nonspecific binding to thioredoxin by linear regression analysis and any effects were regressed out. The median baseline control polarization value for each plate was then subtracted from each data point to make each binding curve intersect at zero. Plates with excessive variation in baseline control polarizations on both a global and run-specific manner (Dixon’s Q test, p < 0.05) were excluded from further analysis. Outliers in each binding curve were identified and removed using an iterative procedure as follows. The residuals for each fit were used to calculate a global standard deviation of the residuals (GSDR) for each concentration of SH2 domain over all interactions, and individual data points with residuals < or > two GSDR from the global mean residual were flagged as outliers. The outlier with the largest residual from each interaction was removed and nonlinear regression was again performed. This procedure was repeated if additional outliers were identified for an interaction, discarding the interaction if the number of outliers exceeded three. […] In order to further control our false positive rate against hidden confounding variables producing binding artifacts, we sought to determine whether there was a significant relationship between the strength of an interaction and its technical replication rate at our stringent significance and filtering thresholds. We performed logistic regression on the proportion of successful replicates for each interaction query against KD for all interactions (Figure S15A). […] This is related to the observation that the majority of interactions detected by FP are tight (Figure S15B). With this logit model, we assigned a probability to each peptide-protein interaction in our data by using a binomial proportions test to compare the observed versus the expected replication rate at the particular KD of that interaction (Table S4). […]

PIK3R3-C SH2 domain = biological target: T5, PIK3R3-C SH2 domain (Homo sapiens, UniProt Q92569); assay: biochemical; assay type: binding; conditions: Protein PIK3R3-C; FP saturation binding, high-confidence ErbB interactions; mean over replicate hits
T5 construct: thioredoxin; made in house; host or cells: E. coli BL21(DE3)pLysS

RASA1-N SH2 domain = biological target: T6, RASA1-N SH2 domain (Homo sapiens, UniProt P20936); assay: FP saturation binding assay
T6 sequence (P20936 181-272 limits assumed): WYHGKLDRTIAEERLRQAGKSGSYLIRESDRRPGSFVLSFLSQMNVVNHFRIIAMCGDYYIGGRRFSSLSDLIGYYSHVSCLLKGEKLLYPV

Compound: FGTVpYKGIWVPEd [ErbB4 pY733]
- KD range of recruitment of SH2D1B (SH2D1B SH2 domain): in the nM KD range
- KD range of recruitment of SH2D1A (SHD1A [sic]) (SH2D1A SH2 domain): in the nM KD range

Compound: CSCC[C@H](NC(=O)[C@H](Cc1ccc(OP(=O)(O)O)cc1)NC(=O)[C@H](CCC(=O)O)NC(=O)[C@H](Cc1ccc(O)cc1)NC(=O)[C@H](CCC(=O)O)NC(=O)[C@@H](N)CCC(=O)O)C(=O)N[C@@H](CC(N)=O)C(=O)N[C@@H](CCCNC(=N)N)C(=O)N[C@@H](CCCNC(=N)N)C(=O)N[C@@H](CCCNC(=N)N)C(=O)N[C@@H](CCCNC(=N)N)C(=O)N[C@@H](Cc1c[nH]cn1)C(=O)N[C@@H](CC(=O)O)C(=O)O [ErbB3 1199 13-mer] (HELM PEPTIDE1{E.E.Y.E.[O=C([C@H](Cc1ccc(OP(=O)(O)O)cc1)N[*:1])[*:2]].M.N.R.R.R.R.H.D}$$$$V2.0)
- Kd (SH2D2A SH2 domain): 13.9 µM

Compound: CC[C@H](C)[C@H](NC(=O)CNC(=O)[C@H](CC(=O)O)NC(=O)[C@H](Cc1ccc(OP(=O)(O)O)cc1)NC(=O)[C@@H]1CCCN1C(=O)[C@H](CCCCN)NC(=O)[C@H](CO)NC(=O)CN)C(=O)N1CCC[C@H]1C(=O)N[C@@H](C)C(=O)N[C@@H](CO)C(=O)N[C@@H](CCC(=O)O)C(=O)N[C@@H](CC(=O)O)C(=O)O [ErbB1 915 13-mer] (HELM PEPTIDE1{G.S.K.P.[O=C([C@H](Cc1ccc(OP(=O)(O)O)cc1)N[*:1])[*:2]].D.G.I.P.A.S.E.D}$$$$V2.0)
- Kd (SH2D1A SH2 domain): 14.5 µM
- Kd (SH2D2A SH2 domain): 4.77 µM

Compound: CC[C@H](C)[C@H](NC(=O)[C@H](Cc1ccc(OP(=O)(O)O)cc1)NC(=O)[C@H](CCC(=O)O)NC(=O)[C@@H]1CCCN1C(=O)[C@@H](NC(=O)[C@@H]1CCCN1)C(C)C)C(=O)N[C@@H](CC(N)=O)C(=O)N[C@@H](CCC(N)=O)C(=O)N[C@@H](CO)C(=O)N[C@H](C(=O)N1CCC[C@H]1C(=O)N[C@@H](CCCCN)C(=O)N[C@@H](CC(=O)O)C(=O)O)C(C)C [ErbB1 1092 13-mer]
- Kd [1]: 11.2 µM
- Kd [2]: 7.58 µM
- Kd [3]: 8.64 µM
- Kd (SH2D2A SH2 domain): 10.9 µM

Compound: NCCCC[C@H](NC(=O)[C@@H]1CCCN1C(=O)[C@H](Cc1ccccc1)NC(=O)[C@H](Cc1ccccc1)NC(=O)[C@H](CC(=O)O)NC(=O)[C@H](CCC(N)=O)NC(=O)[C@H](CCC(N)=O)NC(=O)[C@H](Cc1ccc(OP(=O)(O)O)cc1)NC(=O)[C@H](CC(=O)O)NC(=O)[C@@H]1CCCN1C(=O)[C@H](CC(N)=O)NC(=O)[C@@H](N)CC(=O)O)C(=O)N[C@@H](CC(=O)O)C(=O)O [ErbB1 1172 13-mer] (HELM PEPTIDE1{D.N.P.D.[O=C([C@H](Cc1ccc(OP(=O)(O)O)cc1)N[*:1])[*:2]].Q.Q.D.F.F.P.K.D}$$$$V2.0)
- Kd (PIK3R3-C SH2 domain): 12.6 µM
- Kd [2]: 7.79 µM
- Kd (RASA1-N SH2 domain): 4.17 µM

Compound: CC[C@H](C)[C@H](NC(=O)[C@H](CCCNC(=N)N)NC(=O)[C@H](Cc1c[nH]cn1)NC(=O)[C@@H](N)CC(C)C)C(=O)N[C@@H](Cc1ccc(OP(=O)(O)O)cc1)C(=O)N[C@H](C(=O)N[C@@H](Cc1c[nH]cn1)C(=O)N[C@@H](CCC(N)=O)C(=O)N[C@@H](CO)C(=O)N[C@@H](CC(=O)O)C(=O)N[C@H](C(=O)N[C@@H](Cc1c[nH]c2ccccc12)C(=O)N[C@@H](CC(=O)O)C(=O)O)C(C)C)[C@@H](C)O [ErbB1 891 13-mer] (HELM PEPTIDE1{L.H.R.I.[O=C([C@H](Cc1ccc(OP(=O)(O)O)cc1)N[*:1])[*:2]].T.H.Q.S.D.V.W.D}$$$$V2.0)
- Kd (SH2D2A SH2 domain): 13.4 µM

Compound: LDEApYVMAGVGS [ErbB2 pY772]
- KD range of recruitment of SH2D1B (SH2D1B SH2 domain): in the nM KD range
- KD range of recruitment of SH2D1A (SHD1A [sic]) (SH2D1A SH2 domain): in the nM KD range

Reference: publication PMC3433420 (PLoS ONE, 2012)
